In patent US5356880A, “Glycyrrhetinic acid derivatives” (priority 1991, dated 1994):
Read-outs that look alike come from different tables or passages of the source.

Tests used:
HSV-1 (Miyama strain) = experiment: In vitro antiviral action on cells infected with HSV-1 (Miyama strain), CPE inhibition, TCID50; assay type: cell-based, Herpes simplex virus type 1; settings: Human alphaherpesvirus 1, GMK cells, read-out: Antiviral Activity (ΔTCID50)
HSV-1 (KOS strain) = experiment: microbe, parasite or virus in culture; assay type: cell-based, Herpes simplex virus type 1; settings: Human alphaherpesvirus 1, Vero, read-out: Antiviral Activity (ΔTCID50)
HSV-2 (UW-268 strain) = experiment: microbe, parasite or virus in culture; assay type: cell-based, Herpes simplex virus type 2; settings: Human alphaherpesvirus 2, Vero, read-out: Antiviral Activity (ΔTCID50)
[1] = tested on: vaccinia viruses (D1E strain); experiment: microbe, parasite or virus in culture; assay type: cell-based; settings: Orthopoxvirus vaccinia, Vero, read-out: Antiviral Activity (ΔTCID50)
[2] = tested on: influenza viruses (A/PR/8 strain); experiment: microbe, parasite or virus in culture; assay type: cell-based, influenza virus A/PR/8; settings: unidentified influenza virus, PR/8, MDCK, read-out: Antiviral Activity (ΔTCID50)
[3] = Acute toxicity testing, oral, mice (LD50, Litchfield-Willcoxon); settings: mouse, in vivo, ICR male mice, 7 days observation
Source text: The compounds to be tested in the form of a 2% aqueous solution of Tween 80 were orally administrated to ICR male mice (weights: 24-30 g), five for each group.

influenza viruses = settings: in vivo; cited from earlier work

Compound COc1ccccc1N1CCN(C(=O)[C@@]2(C)CC[C@]3(C)CC[C@]4(C)C(=CC[C@@H]5[C@@]6(C)CC[C@H](O[C@H]7O[C@H](C(=O)O)[C@@H](O)[C@H](O)[C@H]7O[C@@H]7O[C@H](C(=O)O)[C@@H](O)[C@H](O)[C@H]7O)C(C)(C)[C@@H]6CC[C@]54C)[C@@H]3C2)CC1 [Comp. Ex. 37, 30-(N-2-(4-(2-methoxylphenyl)piperazine-1-yl)carbonyl)-18β-olean-12-en-3β-yl-2-O-β-D-glucuronyl-α-D-gluconic acid] has a log reduction at 1 µg/mL (HSV-1 (Miyama strain); 1 μg/ml) of 1.94, a log reduction at 5 µg/mL (HSV-1 (Miyama strain); 5 μg/ml) greater than 3.17 and a log reduction at 25 µg/mL (HSV-1 (Miyama strain); 25 μg/ml) greater than 3.73. It also gave a log reduction at 1 µg/mL (HSV-1 (KOS strain)) of 2.74, a log reduction at 5 µg/mL (HSV-1 (KOS strain)) of 2.65 and a log reduction at 25 µg/mL (HSV-1 (KOS strain)) greater than 3.25. It also gave a log reduction at 1 µg/mL (HSV-2 (UW-268 strain)) of 1.87, a log reduction at 5 µg/mL (HSV-2 (UW-268 strain)) of 3.01 and a log reduction at 25 µg/mL (HSV-2 (UW-268 strain)) greater than 3.85. The log reduction at 1 µg/mL [1] was 1.49, the log reduction at 5 µg/mL [1] was 2.85 and the log reduction at 25 µg/mL [1] was 2.61. It also gave a log reduction at 1 µg/mL [2] of 1.64, a log reduction at 5 µg/mL [2] of 1.7 and a log reduction at 25 µg/mL [2] of 2.38. For the same compound, the LD50 at 168 h [3] was greater than 1000 mg/kg, the magnitude of cytotoxicity (GMK cells; 1 μg/ml) was “-” and the magnitude of cytotoxicity (GMK cells; 5 μg/ml) was “-”. For the same compound, the magnitude of cytotoxicity (GMK cells; 25 μg/ml) was “-” and the magnitude of cytotoxicity (Vero cells) was “-”.
In the case of N#CNc1nncs1 [LY253963], the “effect on influenza viruses in animal tests” value (influenza viruses) is listed as “resistant to influenza viruses in animal tests”.
